Earlier results as cited in patent US20040224916A1 (priority 2003, published 2004).
Read-outs that look alike come from different tables or passages of the source.

Assays:
[1] = system: HIV-1; conditions: in vitro, with agents acting at steps other than reverse transcription, including recombinant soluble CD4, castanospermine, recombinant interferon-α
[2] = dogs and rhesus monkeys
[3] = system: HIV

SMILES | antiviral activity in combination [1] | stability in plasma [2] | effectiveness of S-configuration (at phosphorus) diastereomer relative to R-configuration diastereomer [3] [fold] | effectiveness relative to tenofovir against HIV in culture ([3]; as stated in b46) [times] | effectiveness relative to tenofovir against HIV in culture ([3]; as stated in b47) [fold]
Cc1cn([C@H]2C[C@H](N=[N+]=[N-])[C@@H](CO)O2)c(=O)[nH]c1=O [AZT, 3′-azido, 3′-deoxythymidine] | synergistic antiviral activity | – | – | – | –
CC(C)OC(=O)[C@H](C)N[P@](=O)(CO[C@H](C)Cn1cnc2c(N)ncnc21)Oc1ccccc1 [GS-7340, 9-[(R)-2-[[(S)-[[(S)-1-(isopropoxycarbonyl)ethyl]amino]phenoxyphosphinyl]methoxy]propyl]adenine] | – | stable in plasma | 10 | 1000 | 100
